Reference: paper PMC10224004, “Modulation of Distribution and Diffusion through the Lipophilic Membrane with Cyclodextrins Exemplified by a Model Pyridinecarboxamide Derivative” (Pharmaceutics, 2023)

Test: Thermodynamic functions of the hypothetical n-hexane → 1-octanol transferring
Format: physicochemical
Protocol: The apparent dissolution Gibbs energies ( ΔGsol ) and entropies ( ΔSsol ) were calculated at a standard temperature of 298.2 K and 310.2 K:(4) ΔGsol298.2/310.2=−RT(lnX2298.2/310.2) (5) ΔGsol298.2/310.2=ΔHsol0−TΔSsol298.2/310.2 where R is the universal gas constant.
The following conclusions can be derived from Table 3. The dissolution process is more favorable in 1-octanol as compared to n-hexane. In both solvents it is determined by the enthalpy, but the difference between the enthalpy and entropy contributions is not essential (especially in 1-octanol). The greater positive enthalpy term is a driving force of the unfavorable dissolution processes in these two solvents. A more than two-fold difference ΔHsol > TΔSsol exists in n-hexane, and a favorable positive entropy value is not enough to overlap the enthalpy one. From the dissolution thermodynamic functions, the hypothetical transfer n-hexane→1-octanol simulating the blood-brain penetration can be disclosed. As follows from Table 3, the transferring is favorable (negative ΔGtr value), in that the lower temperature facilitates the process. The hypothetical transition from n-hexane to 1-octanol is driven and determined by the negative enthalpy (~80%). A small negative entropy contribution— TΔStr indicates some ordering of the system upon the movement of the IPN molecules from n-hexane to 1-octanol.

CC(C)NNC(=O)c1ccncc1 [IPN, N′-isopropyl isonicotinic hydrazide]
TΔStr298.2 (298.2 K): -0.884 kcal/mol
ΔGtr298.2 (298.2 K): -3.78 kcal/mol
ζHtr (298.2 K (first value of cell)): 84.1%
ΔHtr298.2/310.2 (298.2 K and 310.2 K): -4.66 kcal/mol
TΔStr310.2 (310.2 K): -0.932 kcal/mol
ΔGtr310.2 (310.2 K): -3.73 kcal/mol
ζHtr (310.2 K (second value of cell)): 83.3%
